{"source": "patent US10945978B2", "about": "“Treatment and diagnosis of melanoma” (The Rockefeller University, priority 2012, dated 2021)", "key": {"[1]": {"test_system": "DTIC-resistant MeWo human melanoma cells", "conditions": "oral, GW3965 diet 100 mg/kg", "protocol": "Following growth of tumors to 5-10 mm^3 in volume, mice were blindedly assigned to the following treatment groups: (1) control diet; (2) control diet+DTIC (50 mg/kg); (3) GW3965-supplemented diet (100 mg/kg). […] DTIC was administered daily, as described above, in cycles consisting of 5 consecutive daily treatments interspersed by 2-day off-treatment intervals. Tumor growth was measured twice a week."}, "DNAJA4": {"test_system": "DNAJA4", "assay": "DNAJA4 expression by qRT-PCR in parental MeWo cells", "assay_type": "cell-based, human", "conditions": "GW3965 48 hours", "method": "Total RNA was extracted from various cell lines using the miRvana kit (AM1560, Applied Biosystems, Austin, Tex.). The expression levels of mature miRNAs were quantified using the Taqman miRNA expression assay (4427975-0002228, Applied Biosystems). RNU44 was used as an endogenous control for normalization. For mRNA expression analyses, 600 ng of total RNA was reverse transcribed using the cDNA First-Strand Synthesis Kit (18080-051, Invitrogen), and roughly 200 ng of the resulting cDNA was then mixed with SYBR green PCR Master Mix (4309155, Applied Biosystems) and the appropriate primers. Each reaction was performed in quadruplicate, and mRNA expression was quantified by performing real-time PCR amplification using an ABI Prism 7900HT Real-Time PCR System (Applied Biosystems). GAPDH was used as an endogenous control for normalization. The following primers were used: […]"}, "Extracellular ApoE": {"test_system": "Extracellular ApoE", "assay": "ApoE ELISA in conditioned media", "assay_type": "cell-based, human", "conditions": "MeWo cells; 1 μM, 72 hours", "method": "Extracellular ApoE levels in serum-free conditioned media from melanoma cells treated with DMSO, GW3965, or T0901317 (1 μM each) were quantified using the ApoE ELISA kit (Innovative Research) at 72 hours following treatment."}, "[2]": {"test_system": "SK-Mel-334.2 primary human melanoma line", "assay": "Subcutaneous SK-Mel-334.2 tumor growth in immunocompromised mice", "assay_type": "in vivo", "conditions": "oral, GW3965-supplemented diet"}, "[3]": {"test_system": "ApoE promoter fused to ME.1 or ME.2", "assay": "ApoE promoter activity assay (luciferase)", "assay_type": "cell-based, human", "conditions": "MeWo cells; 1 μM, 24 hours", "text": "The ApoE promoter, consisting of a sequence spanning 980 base pairs upstream and 93 base pairs downstream of the ApoE gene, was cloned into a pGL3-Basic vector (E1751, Promega Corporation, Madison, Wis.) upstream of the firefly luciferase gene using NheI and SacI restriction enzymes. Then, multi-enhancer elements 1 (ME. 1) and 2 (ME.2) were cloned directly upstream of the ApoE promoter using MluI and SacI restriction enzymes. To assess ApoE promoter- and ME.1/ME.2-driven transcriptional activation by LXR agonists, 5×10^4 MeWo cells were seeded into a 24-well plate. The following day, 100 ng of pGL3-ME. […] To assess transcriptional activation by LXRα or LXR(3, 5×10^4 MeWo cells expressing a control shRNA or shRNA targeting LXRα or LXRβ were seeded into a 24-well plate. The following day, 200 ng of pGL3-ME. 1/ME.2-ApoE promoter construct and 2 ng of pRL-CMV renilla luciferase were co-transfected into cells in the presence of DMSO, GW3965, or T0901317 at 1 μM, each condition in quadruplicate. After 24 hours, cells were lysed, and cell lysate was analyzed for firefly and renilla luciferase activity using the Dual Luciferase Assay System (E1960, Promega) and a Bio-Tek Synergy NEO Microplate Reader. Firefly luciferase signal was normalized to renilla luciferase signal and all data are expressed relative to the luciferase activity ratio measured in the DMSO-treated control cells."}, "[4]": {"test_system": "HT-144 melanoma line, SK-Mel-334.2 primary melanoma line", "assay": "Lung metastatic colonization by HT-144 and SK-Mel-334.2 cells in NOD scid mice", "assay_type": "in vivo, human", "method": "Melanoma cells used for in vivo metastasis assays were transduced with a stably expressed retroviral construct encoding a luciferase reporter gene (Ponomarev et al., 2004), allowing us to monitor the in vivo progression of melanoma cells by bioluminescence imaging. The following numbers of melanoma cells, resuspended in 100 μL of PBS, were injected intravenously via the tail-vein: 4×10^4 MeWo cells, 2.5×10^5 HT-144 cells, 2×10^5 SK-Mel-334.2 cells, 5×10^4B16F10 cells, and 1×10^5 YUMM cells. The MeWo, HT-144, and SK-Mel-334.2 cells were injected into 6-8 week-old sex-matched NOD scid mice, while the B16F10 and YUMM cells were injected into 6-8 week-old sex-matched C57BL/6 mice. In all experiments assessing at the effects of GW3965 on metastasis formation, mice were pre-treated on a control diet or a GW3965-supplemented diet (20 mg/kg) for 10 days. To assess the effect of GW3965 treatment on brain metastasis, 1×10^5 MeWo brain-metastatic derivatives were injected intracardially into athymic nude mice. Immediately following injection, mice were randomly assigned to a control diet or GW3965-supplemented diet (100 mg/kg). […]"}, "endothelial cells": {"test_system": "endothelial cells", "assay": "Endothelial recruitment by breast, renal cell and pancreatic cancer cells with ApoE", "assay_type": "cell-based"}, "[5]": {"test_system": "VEGF-induced endothelial recruitment", "assay": "In vivo matrigel plug assay", "parameters": "species or system mouse", "conditions": "VEGF 400 ng/mL + recombinant ApoE3 10 μg/mL", "method": "10 μg/mL recombinant human ApoE3 (4696, BioVision), 10 μg/mL BSA (A2153, Sigma Aldrich), or 400 ng/ml VEGF were mixed with matrigel (356231, BD Biosciences) as indicated. 400 μL of matrigel containing the indicated recombinant proteins were injected subcutaneously just above the ventral flank of immunocompromised NOD-SCID mice. Plugs were extracted on day 3 post-injection and fixed in 4% paraformaldehyde for 48 hours. Plugs were then paraffin-embedded and sectioned at 5-μm-thick increments. Plug cross-sectional sections were immunohistochemically stained using a primary antibody against the mouse endothelial antigen MECA-32 (Developmental Studies Hybridoma Bank, The University of Iowa, IA), detected by peroxidase-conjugated secondary antibody, and subsequently visualized by DAB oxidization. To quantify the extent of endothelial cell invasion into each matrigel plug, the number of endothelial cells was counted in 4-5 random fields for each plug, and the average number of endothelial cells per given plug area was calculated."}}, "note": "Counter-ions that a name gives are not always drawn.", "data": [{"compound": "O=C(O)Cc1cccc(OCCCN(Cc2cccc(C(F)(F)F)c2Cl)CC(c2ccccc2)c2ccccc2)c1", "note": "[GW3965 2, 3-[3-[N-(2-Chloro-3-trifluoromethylbenzyl)-(2,2-diphenylethyl)amino]propyloxy] phenylacetic acid hydrochloride]", "values": [{"measurement": "growth of in vivo-derived DTIC-resistant human melanoma tumors", "setting": "[1]", "value": "strongly inhibited"}, {"measurement": "expression of DNAJA4", "setting": "DNAJA4", "value": "increased"}, {"measurement": "levels of secreted ApoE protein", "setting": "Extracellular ApoE", "value": "elevated levels"}, {"measurement": "tumor growth inhibition", "setting": "[2]", "value": 73, "unit": "%"}, {"measurement": "activity of luciferase reporter with ApoE promoter fused to ME.1 or ME.2", "setting": "[3]", "value": "enhance"}, {"measurement": "metastatic colonization", "setting": "[4]; HT-144 melanoma line", "value": "suppressed"}, {"measurement": "metastatic colonization", "setting": "[4]; SK-Mel-334.2 primary melanoma line", "value": "suppressed"}]}, {"compound": "O=S(=O)(c1ccccc1)N(CC(F)(F)F)c1ccc(C(O)(C(F)(F)F)C(F)(F)F)cc1", "note": "[T0901317 1]", "values": [{"measurement": "levels of secreted ApoE protein", "setting": "Extracellular ApoE", "value": "elevated levels"}, {"measurement": "activity of luciferase reporter with ApoE promoter fused to ME.1 or ME.2", "setting": "[3]", "value": "enhance"}]}, {"compound": "recombinant human ApoE: recombinant human ApoE3 (4696, BioVision)", "values": [{"measurement": "endothelial recruitment", "setting": "endothelial cells", "value": "inhibited"}, {"measurement": "suppression of VEGF-induced endothelial recruitment into subcutaneous matrigel plugs", "setting": "[5]", "value": "greater than 40 fold"}]}]}
